Measurements reported in patent US20040009485A1, “Cellular arrays for the identification of altered gene expression” (priority 2002, published 2004).

Experiments:
[1] = tested on: uhpT-luxCDABE gene fusion (E. coli strain DPD3228); assay: Verification of uhpT-lux upregulation by limonene; assay type: cell-based; details: late response, maximal at highest conc, also detected at 40% or 20% of saturating amounts (FIG. 10)
Description: E. coli strain DPD3228 is identical to lux-a.pk034.b9 the strain containing the uhpT-luxCDABE gene fusion. This strain was grown overnight at 37° C. in LB medium containing 100 μg/ml ampicillin and diluted the following day into LB medium and grown to log phase at 37° C. 20 μl aliquots of this culture were added to 80 μl of LB medium saturated with limonene, to 80 μl of a series of two fold dilutions into LB medium of LB saturated with limonene, and to 80 μl of LB medium. Light production was measured in a Luminoskan Ascent (Labsystems) microplate luminometer at 37° C. […] Similar to the initial LuxArray observations, a late response to the presence of limonene was observed. This response was maximal at the highest concentration of limonene tested, but was also detected when limonene was present at 40% or 20% of saturating amounts in LB medium.

[2] = tested on: heat shock regulon gene fusions; assay: Stress response of heat shock regulon luxCDABE gene fusions (ethanol); assay type: cell-based, E. coli; details: clpB-luxCDABE fusion (heat shock regulon), DPD2243; 5 μg/ml nalidixic acid, 110 minutes
Description: To test the stress responses, one or two single colonies of each selected strain were used to inoculate 5.0 ml of LB medium containing 150 μg/ml of ampicillin. These cultures were grown overnight at 37° C. then diluted by adding 50 μl or 100 μl of the overnight culture into 10.0 ml of fresh LB medium (without ampicillin) and grown with agitation at 37° C. until the culture was in exponential phase with readings on a Klett-Summerson colorimeter containing the red filter of between 10 and 40. These actively growing cultures were immediately used to initiate a stress response experiment by adding 50 μl of cultures to 50 μl of LB medium containing various concentrations of chemical in the wells a 96 well luminometer plate. This division of the actively growing culture at the time of chemical addition ensured identical populations were present when the stress was imposed. Light production was measured in a Dynex ML3000 luminometer at 37° C. The dimensionless units of light production, relative light units (RLU), are obtained by comparison with the light reading from an internal light-emitting diode. The cycle mode of the ML3000 luminometer, similar to previous descriptions (Van Dyk et al., Appl. Environ. Microbiol. 60:1414-120) was used. […]

[3] = tested on: Luxarray 0.5 reporter clones; assay: Luxarray 0.5 solid phase perturbation with nalidixic acid (luminometer); assay type: cell-based, E. coli; details: 1 and 5 μg/ml plates, 2 hrs
Description: A solid phase assay system consisting of reporter clones growing in the presence or absence of a perturbation, biological, environmental was developed. This was accomplished by growing the reporters on a porous membrane (Biodyne B, Nunc) seated on top of solid growth media in a culture dish (OmniTray, Nunc). Luminescence was measured either by a luminometer or by creating an image of the entire culture and quantitating the pixel density. Effects of perturbants can be determined by comparison of luminescence generated by treated and control cultures. Growth on the surface of the membrane allows the reporter assay to be moved between conditions as required. […]
Membranes were sterilized with UV illumination for 10 min then placed in contact with prewarmed media in a culture dish. […] Luminescence data was collected for each spot for 40 cycles of 20 min duration (overnight). […] Without exception, the signal strength measured corroborated the data obtained in liquid culture. […]
Next the system was evaluated for its ability to determine responses to perturbation, in this case, DNA damage caused by nalidixic acid Parental clone and two nonresponding reporters, osmY, and lacZYA, and three DNA damage responsive reporters, uvrA, recA, dinG, were chosen. […] The membranes were moved to new, pre-warmed plates containing varying amounts of nalidixic acid and light readings collected with an ML3000 luminometer. […]

[4] = tested on: luxCDABE gene fusions in lexA+ host; assay: Mitomycin C and nalidixic acid responses in lexA+ host; assay type: cell-based, E. coli; details: for NA Ratio, 2 hr 10 ug/ml: lexA+ host
Description: In addition, the effect of a lexAind mutation was tested to determine if any of these were part of the SOS regulon. The expectation is that SOS regulon member will be induced by both nalidixic acid and mitomycin C in a manner that is dependent on lexA function (Walker, G. C., (1996) Escherichia coli and Salmonella: Cellular and Molecular Biology ASM Press). […] This is consistent with the observation of upregulation of the b1728 mRNA transcript upon mitomycin C treatment in a LexA dependent fashion (Fernández de Henestrosa et al. (2000). Mol. Microbiol. 35:1560-1572). Likewise, two Gene fusions, those to oraA and yigN were identified is new members of the SOS regulon (Table 16). […] Negative, non-DNA damage responsive gene fusions were also included (Table 16).

For `C=C(C)[C@H]1CC=C(C)CC1` [limonene], the “upregulation of bioluminescence of uhpT-luxCDABE strain” value [1] was “upregulation of bioluminescence from this strain by limonene was confirmed”.

For `CCn1cc(C(=O)O)c(=O)c2ccc(C)nc21` [Nalidixic acid, nalidixic acid], the Response Ratio [2] was 0.40, the “bioluminescence on solid medium” value ([3]; SOS regulon reporters uvrA, recA, dinG) was “increased bioluminescence” and the “bioluminescence on solid medium” value ([3]; non-DNA damage responsive fusions osmY and lacZYA) was “unaffected”. For the same molecule, the “NA Ratio, 2 hr 10 ug/ml” value ([4]; 1pxA 1pxB rnhB dnaE fusion (lux-a.pk061.c3)) was 2.87, the “NA Ratio, 2 hr 10 ug/ml” value ([4]; b1728 fusion (lux-a.pk033.c5)) was 5.17 and the “NA Ratio, 2 hr 10 ug/ml” value ([4]; b1936 fusion (lux-a.pk0019.g1)) was 3.25. The “NA Ratio, 2 hr 10 ug/ml” value ([4]; dinG ybiB fusion (lux-a.pk0024.f5)) was 4.03, the “NA Ratio, 2 hr 10 ug/ml” value ([4]; fusion (lux-a.pk0015.d6)) was 3.22 and the “NA Ratio, 2 hr 10 ug/ml” value ([4]; lacZ fusion (65.d4), negative control) was 0.81. The “induction of b1728 promoter-luxCDABE fusion” value ([4]; lexA+ host (FIG. 9)) was “clearly induced”, the “NA Ratio, 2 hr 10 ug/ml” value ([4]; oraA fusion (lux-a.pk058.f5)) was 11.06 and the “NA Ratio, 2 hr 10 ug/ml” value ([4]; yaaF fusion (lux-a.pk031.e7)) was 1.53. For the same molecule, the “NA Ratio, 2 hr 10 ug/ml” value ([4]; yciG fusion (lux-a.pk006.b4), negative control) was 0.32 and the “NA Ratio, 2 hr 10 ug/ml” value ([4]; yigN fusion (lux-a.pk046.f11)) was 5.74.
